The first assay has as its system MCH receptors. The assay is described as follows: MCH receptor activity class (method not given). Particulars: MCH receptor activity class 1-3 (percent of control at 10^-7 M or IC50).
Take `CN(C)c1ccnc(N[C@H]2CC[C@@H](NC(=S)Nc3ccc4c(c3)OCO4)CC2)n1` [compound 2350]: the class is reported as 3 (Class 3 The value of percent of control at 10^−7 M was more than 60% or the value of IC50 was more than 200 nM.). Same read-out and setting: for `CN(C)c1ccnc(N[C@H]2CC[C@@H](CNC(=O)Nc3ccccc3I)CC2)n1` [compound 2424] the value was 3 (Class 3 The value of percent of control at 10^−7 M was more than 60% or the value of IC50 was more than 200 nM.); for `CN(C)c1cc(N[C@H]2CC[C@@H](CNC(=O)Nc3ccc(F)c(F)c3)CC2)nc2ccccc12` [compound 2402], 3 (Class 3 The value of percent of control at 10^−7 M was more than 60% or the value of IC50 was more than 200 nM.). For the compound `CCOC(=O)[C@H](CC(C)C)NC(=O)NC[C@H]1CC[C@@H](Nc2nccc(N(C)C)n2)CC1` (relative stereo) [compound 2409], the class is listed as 3 (Class 3 The value of percent of control at 10^−7 M was more than 60% or the value of IC50 was more than 200 nM.).

Still in this assay, the particulars now being: MCH receptor; class by percent of control at 10^-7 M or IC50.
In the case of `CN(C)c1cc(N[C@H]2CC[C@@H](CNC(=O)c3ccc4nonc4c3)CC2)nc2ccccc12` [compound 150, N-[(cis-4-{[4-(dimethylamino)quinolin-2-yl]amino}cyclohexyl)methyl]-2,1,3-benzoxadiazole-5-carboxamide], the class is 3 (Class 3 The value of percent of control at 10^−7 M was more than 60% or the value of IC50 was more than 200 nM.). The same measure, in the same setting: the value for `CN(C)c1cc(N[C@H]2CC[C@@H](CNC(=O)c3cc(Cl)cc(Cl)c3)CC2)nc2ccccc12` [compound 157] was 3 (Class 3 The value of percent of control at 10^−7 M was more than 60% or the value of IC50 was more than 200 nM.). On the same count and under the same terms, for `CCSc1ncccc1C(=O)N[C@H]1CC[C@@H](Nc2cc(N(C)C)c3ccccc3n2)CC1` [compound 36] the value was 3 (Class 3 The value of percent of control at 10^−7 M was more than 60% or the value of IC50 was more than 200 nM.); for `CN(C)c1nc(N[C@H]2CC[C@@H](NC(=O)Nc3ccc(-c4ccccc4)s3)CC2)nc2c1CCCC2` [compound 1919], 3 (Class 3 The value of percent of control at 10^−7 M was more than 60% or the value of IC50 was more than 200 nM.).

Take `CN(C)c1cc(N[C@H]2CC[C@@H](NC(=O)CSc3ccccc3)CC2)nc2ccccc12` [compound 63]: the class is 3 (Class 3 The value of percent of control at 10^−7 M was more than 60% or the value of IC50 was more than 200 nM.).

Staying with this assay, now noted: activity class 1-3: percent of control at 10^-7 M or IC50.
For the compound `COc1cc(Cl)ccc1CNC[C@H]1CC[C@@H](Nc2nccc(N(C)C)n2)CC1` [compound 1536], the class is on record as 3 (Class 3 The value of percent of control at 10^−7 M was more than 60% or the value of IC50 was more than 200 nM.).

As to `CN(C)c1ccnc(N[C@H]2CC[C@@H](NC(=O)Oc3cccc(C(F)(F)F)c3)CC2)n1` [compound 1622], the class was 3 (Class 3 The value of percent of control at 10^−7 M was more than 60% or the value of IC50 was more than 200 nM.). On the same count and under the same terms, for `CCc1cccc(C(C)C)c1NC(=O)N[C@H]1CC[C@@H](Nc2nc3c(c(N(C)C)n2)CCCC3)CC1` [compound 1676] the value was 2 (Class 2: The value of percent of control at 10^−7 M was from 40% to 60% or the value of IC′50 was from 50 nM to 200 nM.).

Still in this assay, the particulars now being: activity class per percent of control at 10^-7 M or IC50.
With `CCCCC/C(=C\c1ccccc1)CN[C@H]1CC[C@@H](Nc2cc(N(C)C)c3ccccc3n2)CC1` [compound 1111], the class was 3 (Class 3 The value of percent of control at 10^−7 M was more than 60% or the value of IC50 was more than 200 nM.). On the same count and under the same terms, the value for `CN(C)c1nc(N[C@H]2CC[C@@H](NC(=O)Cc3cccc(Oc4ccccc4)c3)CC2)nc2c1CCCC2` [compound 1003] was 2 (Class 2: The value of percent of control at 10^−7 M was from 40% to 60% or the value of IC′50 was from 50 nM to 200 nM.). For `CN(C)c1nc(N[C@H]2CC[C@@H](NC(=O)c3cc(-c4ccccc4)nc4ccccc34)CC2)nc2c1CCCC2` [compound 1033], the class is listed as 2 (Class 2: The value of percent of control at 10^−7 M was from 40% to 60% or the value of IC′50 was from 50 nM to 200 nM.).

Still in this assay, the particulars now being: class 1-3 by percent of control at 10^-7 M or IC50.
For the compound `CN(C)c1nc(N[C@H]2CC[C@@H](NC(=O)c3cc(C(C)(C)C)nn3Cc3ccc(Cl)cc3Cl)CC2)nc2c1CCCC2` [compound 577], the class is on record as 3 (Class 3 The value of percent of control at 10^−7 M was more than 60% or the value of IC50 was more than 200 nM.). Still for that read-out and setting: the value for `C/C(=C\c1ccccc1)C(=O)NC[C@H]1CC[C@@H](Nc2nccc(N(C)C)n2)CC1` [compound 432] was 3 (Class 3 The value of percent of control at 10^−7 M was more than 60% or the value of IC50 was more than 200 nM.); that for `Cc1cccc(C(=O)N[C@H]2CC[C@@H](Nc3nc4c(c(N(C)C)n3)CCCC4)CC2)c1` [compound 486] was 1 (Class 1: The value of percent of control at 10^−7 M was less than 40% or the value of IC50 was less than 50 nM.).

Still in this assay, the particulars now being: class by percent of control at 10^-7 M or IC50.
For `CN(C)c1cc(N[C@H]2CC[C@@H](NCC(c3ccc(Cl)cc3)c3ccc(Cl)cc3)CC2)nc2ccccc12` [compound 1460], the class is recorded as 3 (Class 3 The value of percent of control at 10^−7 M was more than 60% or the value of IC50 was more than 200 nM.). In the case of `CN(C)c1cc(N[C@H]2CC[C@@H](NC(=O)Nc3ccc(Oc4ccccc4)cc3)CC2)nc2ccccc12` [compound 2132], the class is on record as 3 (Class 3 The value of percent of control at 10^−7 M was more than 60% or the value of IC50 was more than 200 nM.). For `Cc1ccccc1NC(=O)N[C@H]1CC[C@@H](Nc2cc(N(C)C)c3ccccc3n2)CC1` [compound 2098], the class was 3 (Class 3 The value of percent of control at 10^−7 M was more than 60% or the value of IC50 was more than 200 nM.). Same read-out and setting: the value for `CN(C)c1nc(N[C@H]2CC[C@@H](NC(=O)NCc3ccc(Cl)cc3Cl)CC2)nc2c1CCCC2` [compound 1710] was 2 (Class 2: The value of percent of control at 10^−7 M was from 40% to 60% or the value of IC′50 was from 50 nM to 200 nM.). Still for that read-out and setting: the value for `CN(C)c1ccnc(N[C@H]2CC[C@@H](NC(=O)[C@H](CCCCNC(=O)c3ccccc3)NC(=O)c3ccccc3)CC2)n1` (relative stereo) [compound 843] was 2 (Class 2: The value of percent of control at 10^−7 M was from 40% to 60% or the value of IC′50 was from 50 nM to 200 nM.); that for `CN(C)c1ccnc(N[C@H]2CC[C@@H](NC(=O)CCCc3ccc([N+](=O)[O-])cc3)CC2)n1` [compound 864, N-(cis-4-{[4-(dimethylamino)pyrimidin-2-yl]amino}cyclohexyl)-4-(4-nitrophenyl)butanamide] was 2 (Class 2: The value of percent of control at 10^−7 M was from 40% to 60% or the value of IC′50 was from 50 nM to 200 nM.). Same read-out and setting: for `CN(C)c1nc(N[C@H]2CC[C@@H](CNCc3cc(F)cc(C(F)(F)F)c3)CC2)nc2c1CCCC2` [compound 1440] the value was 3 (Class 3 The value of percent of control at 10^−7 M was more than 60% or the value of IC50 was more than 200 nM.). For the compound `Cc1ccc(NC(=S)N[C@H]2CC[C@@H](Nc3nc4c(c(N(C)C)n3)CCCC4)CC2)c(C)c1` [compound 1756], the class was 2 (Class 2: The value of percent of control at 10^−7 M was from 40% to 60% or the value of IC′50 was from 50 nM to 200 nM.). As to `CN(C)c1ccnc(N[C@H]2CC[C@@H](CNCc3cn(C)c4ccccc34)CC2)n1` [compound 1300], the class was 2 (Class 2: The value of percent of control at 10^−7 M was from 40% to 60% or the value of IC′50 was from 50 nM to 200 nM.).

In the case of `COc1cc(Br)c(CNC[C@H]2CC[C@@H](Nc3nc4c(c(N(C)C)n3)CCCC4)CC2)cc1OC` [compound 1433], the class is reported as 3 (Class 3 The value of percent of control at 10^−7 M was more than 60% or the value of IC50 was more than 200 nM.). On the same count and under the same terms, the value for `CN(C)c1ccnc(N[C@H]2CC[C@@H](NC(=O)Cc3ccc(F)cc3Cl)CC2)n1` [compound 814] was 3 (Class 3 The value of percent of control at 10^−7 M was more than 60% or the value of IC50 was more than 200 nM.); that for `CN(C)c1cc(N[C@H]2CC[C@@H](CNC(=O)c3ccccc3Br)CC2)nc2ccccc12` [compound 220] was 3 (Class 3 The value of percent of control at 10^−7 M was more than 60% or the value of IC50 was more than 200 nM.); that for `CN(C)c1cc(N[C@H]2CC[C@@H](CNC(=O)c3cccc(F)c3F)CC2)nc2ccccc12` [compound 228] was 3 (Class 3 The value of percent of control at 10^−7 M was more than 60% or the value of IC50 was more than 200 nM.). Turning to `COc1ccc2c(c1)C(CC(=O)N[C@H]1CC[C@@H](Nc3nccc(N(C)C)n3)CC1)CC2=O` (relative stereo) [compound 852], the class is listed as 3 (Class 3 The value of percent of control at 10^−7 M was more than 60% or the value of IC50 was more than 200 nM.).

The assay is the same for the next values; noted with them: class by percent of control at 10^−7 M or IC50.
In the case of `Cc1cc(N(C)C)nc(NC[C@H]2CC[C@@H](NC(=O)c3ccc(F)c(C)c3)CC2)n1` [compound 2738], the class is given as 3 (Class 3 The value of percent of control at 10^−7 M was more than 60% or the value of IC50 was more than 200 nM.). Same read-out and setting: the value for `Cc1cnc(N[C@H]2CC[C@@H](NC(=O)c3ccc(C(F)(F)F)cc3)CC2)nc1N(C)C` [compound 2912, N-(cis-4-{[4-(dimethylamino)-5-methylpyrimidin-2-yl]amino}cyclohexyl)-4-(trifluoromethyl)benzamide] was 1 (Class 1: The value of percent of control at 10^−7 M was less than 40% or the value of IC50 was less than 50 nM.); that for `Cc1cnc(N[C@H]2CC[C@@H](C(=O)N[C@H]3C[C@@H]3c3ccccc3)CC2)nc1N(C)C` [compound 2790, cis-4-{[4-(dimethylamino)-5-methylpyrimidin-2-yl]amino}-N-[(1S,2R)-2-phenylcyclopropyl]cyclohexanecarboxamide] was 1 (Class 1: The value of percent of control at 10^−7 M was less than 40% or the value of IC50 was less than 50 nM.). Same read-out and setting: the value for `CCOc1ncccc1C(=O)N[C@H]1CC[C@@H](Nc2nc(C)c(C)c(N(C)C)n2)CC1` [compound 2834] was 3 (Class 3 The value of percent of control at 10^−7 M was more than 60% or the value of IC50 was more than 200 nM.).
